The subject of the experiment is P. falciparum 3D7 growth, pLDH absorbance. The experiment is described as follows: P. falciparum 3D7 growth inhibition, dose response, strain 3D7 (AID 2305).

As usually defined, the IC50 is the concentration that inhibits the measured activity by half. Higher therefore signals lower potency.

In turn, `CN(C)CCCNc1ncnc2c1[nH]c1ccc(Cl)cc12` returned an IC50 of 280 nM. This lies in the sub-micromolar range.

Regarding `C=CCOc1ccc(C2C(C(=O)OC)=C(C)NC3=C2C(=O)c2ccccc23)cc1OC` (centres undefined), the IC50 was 880 nM. This IC50 is about 3.1-fold higher than that of the molecule before.

`CCOc1cc(C(=O)NCCN(CC)c2cccc(C)c2)ccc1-c1nc2ccc(Cl)cc2[nH]1` registered an IC50 of 810 nM.

In turn, `NC1CCN(Cc2cccc(-c3cccc(-c4nc5ccccc5[nH]4)c3)c2)C1` (centres undefined) showed a 50% inhibitory concentration (IC50) of 790 nM. This IC50 and that of the molecule before are within 1.5-fold of each other.

In turn, `COC(=O)c1ccc(CC(C)NCC(O)c2cccc(OC(F)(F)F)c2)cc1` (centres undefined) had an IC50 of 860 nM.

Molecule `Cc1cc(N(C)C)nc(Nc2ccc(NC(=O)c3c(F)cccc3Cl)cc2)n1` registered an IC50 of 1090 nM. The IC50 values of the last two molecules are within 1.5-fold of each other.

The molecule `CC(C)CNCc1cccc(-c2ccccc2CN(C(=O)NCCc2ccccc2)C2CCN(Cc3ccccc3)CC2)c1` registered a 50% inhibitory concentration (IC50) of 1170 nM.

On to `O=C(Nc1ccc(Cl)cc1)Nc1ccc(-c2csc(-c3nc4ccccc4[nH]3)c2)cc1`, for which the half-maximal inhibitory concentration (IC50) worked out at 800 nM.

For `O=C(/C=C/c1ccc(Cl)c(Cl)c1)NC1CCN(Cc2ccc(O)cc2)CC1`, the IC50 was determined as 690 nM.

Molecule `O=C(NCCN1CCOCC1)c1ccc(CNC(=O)c2ccc(O)c(-c3ccc(Cl)c(Cl)c3)c2)cc1` registered an IC50 of 930 nM.

`CCNC(C)(C)CN(Cc1ccc(-c2ccc(C(F)(F)F)cc2)cc1)C(=O)Cn1c(CCc2cccc(F)c2F)nc(=O)c2ccccc21` showed an IC50 of 810 nM. The IC50 values of the last two molecules are within 1.5-fold of each other.

In turn, `Cc1[nH]c(C)c(-c2ccc(Oc3ccc(OC(F)(F)F)cc3)cc2)c(=O)c1I` came in with an IC50 of 130 nM.

Consider `Cc1ccc(NC(=O)NC2CCN(c3ccnc4ccccc34)CC2)cc1`, for which the IC50 came out at 790 nM.

The molecule `c1ccc(CCNCc2ccc(-c3ccc(CNc4ccc5ncccc5c4)cc3)cc2)cc1` displayed an IC50 of 920 nM.

For `CCn1c(Sc2ccc(C#N)c([N+](=O)[O-])c2)nnc1-c1cc(OC)cc(OC)c1`, the IC50 was determined as 570 nM.

For `NC(N)=NCCCN(Cc1ccccc1)c1ccccc1`, the IC50 came to 580 nM.

In the case of `CC(=O)Nc1ccc(C(=O)Nc2ccc(-c3cccc(-c4nc5ccccc5[nH]4)c3)cc2)cn1`, the IC50 was found to be 240 nM.

Consider `CC(C)c1sc(N2CCN(C)CC2)nc1C(=O)NCCc1cccc(Cl)c1`, for which the IC50 worked out at 1490 nM.

Take `CC(C)(C)c1ccc(CN2CCC(NC(=O)c3ccc(-c4cccc(Cl)c4)s3)CC2)cc1`: the concentration for half-maximal inhibition (IC50) came out at 1070 nM.

Regarding `COc1ccccc1CNc1nc(Nc2ccccc2C)nc2ccccc12`, the half-maximal inhibitory concentration (IC50) is 810 nM.

Molecule `C=CCN(c1nc(NC)nc(NCc2c(OC)cccc2OC)n1)C1CCCC1` showed an IC50 of 1460 nM. Compared with the last molecule, the IC50 is about 1.8-fold higher.

As for `CC(C)N1CCC(NCc2ccc(-c3ccc(Cl)cc3)cc2)CC1`, the IC50 came out at 650 nM.

`NC(N)=NN=Cc1c2ccccc2c(Cl)c2c(Cl)cccc12` came in with an IC50 of 880 nM.

Turning to `CC(CN1CCN(C)CC1)C(=O)Nc1ccc(-c2ccc(-c3nc4ccc(F)cc4[nH]3)cc2)cc1` (centres undefined), the IC50 was determined as 790 nM.

The molecule `O=C(NCCc1ccccc1)N(Cc1ccccc1-c1cccc(CNCCc2ccccc2)c1)C1CCN(Cc2ccccc2)CC1` yielded an IC50 of 620 nM.

`CCCCc1ccc(S(=O)(=O)Nc2ccc3c(c2)CCN(Cc2c[nH]c4cnccc24)CC3)cc1` showed an IC50 of 670 nM. The IC50 values of the last two molecules are within 1.5-fold of each other.

As to `COc1ccccc1C(=O)C1CCCN(C(=O)c2ccccc2C(F)(F)F)C1` (centres undefined), the 50% inhibitory concentration (IC50) was found to be 600 nM.

As to `O=C(N[C@@H](Cc1ccccc1)C(=O)NC1CCCc2ccccc21)c1ccc(O)c(-c2ccc(Cl)c(Cl)c2)c1` (some centres undefined), the IC50 came out at 210 nM. Compared with the last molecule, the IC50 is about 2.9-fold lower.

The molecule `COc1c(F)cc(CC(C)NCC(O)c2cccc(Cl)c2)cc1F` (centres undefined) gave an IC50 of 1160 nM.

On to `Nc1nc(N)c2cc(C#Cc3ccc(-c4ccccc4)cc3)ccc2n1`, for which the IC50 came to 810 nM. The IC50 values of the last two molecules are within 1.5-fold of each other.

The molecule `CC(C)CCNc1nc(NCCc2ccccc2)c2cc(O)ccc2n1` registered an IC50 of 240 nM.

Regarding `c1csc(-c2ccc3c(c2)CC(NCc2c[nH]c4cnccc24)C3)c1` (centres undefined), the IC50 worked out at 740 nM.

The molecule `CCCCCCOc1ccc(N2C(N)=NC(N)=NC2(C)C)cc1` gave an IC50 of 340 nM.

For the molecule `COc1ccc2nc(C)cc(Nc3ccc(Oc4ccc5ccccc5c4Cl)c(Cl)c3)c2c1`, the IC50 stood at 500 nM. The IC50 values of the last two molecules are within 1.5-fold of each other.

`Cc1cc(N[C@@H](Cc2ccccc2)C(=O)Nc2ccccc2)nc(NCCc2ccc(F)cc2)n1` gave a half-maximal inhibitory concentration (IC50) of 860 nM.

Consider `COc1cccc(-c2nn(C)c3sc(C(=O)NCCN4CCN(c5ccccc5F)CC4)cc23)c1`, for which the IC50 was found to be 950 nM.

`CC(CN1CCN(C)CC1)C(=O)Nc1ccc(-c2csc(-c3nc4ccccc4[nH]3)c2)cc1` (centres undefined) came in with a concentration for half-maximal inhibition (IC50) of 840 nM.

In the case of `Cc1cccc(CN2CCC(C(=O)Nc3ccc(-c4nc5ccccc5[nH]4)cc3)CC2)n1`, the IC50 is 920 nM.

Regarding `CCCc1cc(Cc2cnc(N)nc2N)cc(CC)c1O`, the IC50 worked out at 1320 nM.

With `CC(C)(CNC(=O)[C@H]1CCCCN1)c1nc(-c2ccc(Cl)c(O)c2)c(-c2ccncc2)[nH]1`, the IC50 was 730 nM.

As to `CCOC(=O)c1ccc(NC(=O)Nc2ccc(-c3ccc(-c4nc5c(C)cccc5[nH]4)s3)cc2)cc1`, the 50% inhibitory concentration (IC50) was 200 nM.

`CC[C@H]1CN2CC[C@H]1C[C@H]2C(O)c1cc(OC)nc2ccccc12` (some centres undefined) returned an IC50 of 140 nM.

On to `O=C(O)c1ccc2c(c1)N(C(=O)CNCc1ccc(F)cc1)CC(=O)N2CCCc1ccccc1`, for which the IC50 came to 920 nM.

Regarding `CN(C)c1cccc(CN2CC=C(c3c[nH]c4ccc(Cl)cc34)CC2)c1`, the IC50 was 660 nM.

`CCNc1cc(C(=O)N[C@@H](Cc2cccc(F)c2)[C@H](O)CNC(C)CCCC(C)C)cc(N2CCCCS2(=O)=O)c1` (some centres undefined): the IC50 turned out to be 600 nM.

For `N#Cc1ccc(N2CCN(Cc3ccc(-c4ccc(-c5nc6ccc(F)cc6[nH]5)s4)cc3)CC2)nc1`, the IC50 was determined as 850 nM.

Take `c1ccc2[nH]c(Nc3ccc(Nc4nc5ccccc5[nH]4)cc3)nc2c1`: the IC50 is 780 nM.

In turn, `COc1ccc(CCNCCCCCCNCCc2ccc(OC)c(OC)c2Cl)c(Cl)c1OC` returned an IC50 of 900 nM.

`CN(Cc1cc(C(F)(F)F)cc(C(F)(F)F)c1)C(=O)[C@H]1CNC[C@@H]1c1ccc(F)cc1` came in with a half-maximal inhibitory concentration (IC50) of 830 nM. The IC50 values of the last two molecules are within 1.5-fold of each other.

On to `COc1ccccc1C1CCN(C2CCC(NC(=O)c3ccc4nc(-c5ccc(C)cc5)[nH]c4c3)CC2)CC1` (centres undefined), for which the IC50 came out at 310 nM.

In turn, `COC(=O)c1noc(C)c1I` showed an IC50 of 800 nM.

The molecule `COc1ccc(NC(=O)/C=C/c2ccccc2Cl)cc1OCCN1CCC(NC2CC2)CC1` yielded an IC50 of 840 nM.

In turn, `O=C(Nc1ccc(-c2ccccc2)cc1)Nc1cccc(Cn2ncc(N3CCCNCC3)c(Cl)c2=O)c1` registered an IC50 of 220 nM.

Molecule `CCCNCc1ccc(-c2ccc(CN(CC3CCCO3)C(=O)COc3ccccc3Cl)cc2)nc1` (centres undefined) came in with an IC50 of 1180 nM.

Turning to `CCOc1ccc2nc(C)cc(NN=Cc3ccncc3)c2c1`, the 50% inhibitory concentration (IC50) came to 990 nM. The IC50 values of the last two molecules are within 1.5-fold of each other.

`O=C(c1ccc(Br)o1)N1N=C(c2cccs2)CC1c1ccc(Br)cc1` (centres undefined) yielded an IC50 of 510 nM.

As for `O=C(Cc1ccccn1)Nc1cccc(-c2cccc(-c3nc4ccc(C(F)(F)F)cc4[nH]3)c2)c1`, the 50% inhibitory concentration (IC50) worked out at 610 nM.

Molecule `NC1CCN(c2nc(NCCCc3ccc(O)cc3)nc(NCc3cccc4ccccc34)n2)CC1` showed an IC50 of 720 nM.

For the molecule `Cc1cccc2[nH]c(-c3cccc(-c4ccc(CNCCCN5CCCC5=O)cc4)c3)nc12`, the IC50 came out at 960 nM.

Take `CCCc1ccc(N2C(N)=NC(N)=NC2(C)C)cc1`: the IC50 stood at 30 nM.

`COc1ccc(C2CNCc3c2cc(OC)c(OC)c3Cl)cc1` (centres undefined) came in with an IC50 of 730 nM.

`COc1cc(NC(=O)CCCN2CCN(c3cccc(Cl)c3Cl)CC2)ccc1N1CCN(C(C)C)CC1` gave an IC50 of 950 nM.

Turning to `O=C(C=Cc1ccc(Cl)c(Cl)c1)NC1CCN(CCc2ccccc2)CC1`, the IC50 was determined as 590 nM.

`S=C(NN=Cc1ccccn1)NC1C[C@H]2C=C[C@@H]1C2` (some centres undefined) registered an IC50 of 720 nM.
